T1: SLFN5 (Homo sapiens, UniProt Q08AF3)
T1 construct: recombinant
T1 sequence (Q08AF3 1-891): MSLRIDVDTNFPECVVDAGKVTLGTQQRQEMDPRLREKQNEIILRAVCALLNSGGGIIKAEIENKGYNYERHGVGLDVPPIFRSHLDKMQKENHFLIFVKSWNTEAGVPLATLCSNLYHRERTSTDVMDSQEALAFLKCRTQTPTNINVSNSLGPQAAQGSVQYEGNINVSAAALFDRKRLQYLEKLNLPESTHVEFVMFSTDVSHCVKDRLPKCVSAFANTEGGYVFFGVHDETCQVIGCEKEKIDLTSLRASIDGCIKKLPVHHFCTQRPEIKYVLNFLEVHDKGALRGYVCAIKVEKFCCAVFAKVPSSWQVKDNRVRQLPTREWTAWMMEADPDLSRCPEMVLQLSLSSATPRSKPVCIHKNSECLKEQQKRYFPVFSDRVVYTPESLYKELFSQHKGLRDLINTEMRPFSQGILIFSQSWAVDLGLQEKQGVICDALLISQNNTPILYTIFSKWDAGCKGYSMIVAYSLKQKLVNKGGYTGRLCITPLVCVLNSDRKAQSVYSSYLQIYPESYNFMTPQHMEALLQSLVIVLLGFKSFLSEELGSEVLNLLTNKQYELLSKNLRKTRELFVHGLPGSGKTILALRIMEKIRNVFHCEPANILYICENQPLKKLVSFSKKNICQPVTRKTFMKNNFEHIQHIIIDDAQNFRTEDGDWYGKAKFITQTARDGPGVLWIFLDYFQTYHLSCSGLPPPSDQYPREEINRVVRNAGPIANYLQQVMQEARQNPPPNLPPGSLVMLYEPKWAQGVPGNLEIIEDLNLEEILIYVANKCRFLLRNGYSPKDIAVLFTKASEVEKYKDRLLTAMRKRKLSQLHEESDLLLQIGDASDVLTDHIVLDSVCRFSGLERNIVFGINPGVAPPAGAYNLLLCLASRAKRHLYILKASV


Tests used:
SLFN5 = molecular target: T1, SLFN5; test: nanoDSF thermal unfolding (Tycho NT.[…]); format: binding; details: 1 mM nucleotide, 300 nM protein; 25 mM Tris pH 7.5, 60 mM NaCl, 2 mM MgCl2, 1 mM DTT
[1] = molecular target: the molecule itself; test: cryo-EM structure; SLFN11^E209A at 5 uM; 50 mM glycine pH 9, 200 mM NaCl, 2 mM MgCl2, 1 mM DTT; dimer reconstructed in C2 symmetry; monomer reconstructed from another dataset
[2] = molecular target: the molecule itself; test: mass photometry; 50 nM SLFN11 in 25 mM Tris pH 7.5, 2 mM MgCl2, 1 mM DTT with variable concentrations of NaCl; 100 or 300 nM 60 nt ssDNA added in the stabilisation experiment; monomer-dimer equilibrium

Row | Molecule | unfolding temperature increase (SLFN5) | also measured
1 | Nc1ncnc2c1ncn2[C@@H]1O[C@H](COP(=O)(O)OP(=O)(O)OP(=O)(O)O)[C@@H](O)[C@H]1O [ATP] | SLFN5 shows a significant increase in unfolding temperature in presence of ATP and ATPγS | 
2 | Nc1ncnc2c1ncn2[C@@H]1O[C@H](COP(=O)(O)OP(=O)(O)OP(O)(O)=S)[C@@H](O)[C@H]1O [ATPγS] | SLFN5 shows a significant increase in unfolding temperature in presence of ATP and ATPγS | 
3 | full-length human SLFN11 E209A (enzyme, UniProt Q7Z7L1 1-901, looked up, Schlafen 11 (SLFN11), human, full length, nuclease active site mutant E209A; Made by site-directed mutagenesis of the wild-type construct; source: Trichoplusia ni High Five insect cells, expressed and purified as the wild-type protein) MEANQCPLVVEPSYPDLVINVGEVTLGEENRKKLQKIQRDQEKERVMRAACALLNSGGGVIRMAKKVEHPVEMGLDLEQSLRELIQSSDLQAFFETKQQGRCFYIFVKSWSSGPFPEDRSVKPRLCSLSSSLYRRSETSVRSMDSREAFCFLKTKRKPKILEEGPFHKIHKGVYQELPNSDPADPNSDPADLIFQKDYLEYGEILPFPASQLVEFKQFSTKHFQEYVKRTIPEYVPAFANTGGGYLFIGVDDKSREVLGCAKENVDPDSLRRKIEQAIYKLPCVHFCQPQRPITFTLKIVNVLKRGELYGYACMIRVNPFCCAVFSEAPNSWIVEDKYVCSLTTEKWVGMMTDTDPDLLQLSEDFECQLSLSSGPPLSRPVYSKKGLEHKKELQQLLFSVPPGYLRYTPESLWRDLISEHRGLEELINKQMQPFFRGILIFSRSWAVDLNLQEKPGVICDALLIAQNSTPILYTILREQDAEGQDYCTRTAFTLKQKLVNMGGYTGKVCVRAKVLCLSPESSAEALEAAVSPMDYPASYSLAGTQHMEALLQSLVIVLLGFRSLLSDQLGCEVLNLLTAQQYEIFSRSLRKNRELFVHGLPGSGKTIMAMKIMEKIRNVFHCEAHRILYVCENQPLRNFISDRNICRAETRKTFLRENFEHIQHIVIDEAQNFRTEDGDWYGKAKSITRRAKGGPGILWIFLDYFQTSHLDCSGLPPLSDQYPREELTRIVRNADPIAKYLQKEMQVIRSNPSFNIPTGCLEVFPEAEWSQGVQGTLRIKKYLTVEQIMTCVADTCRRFFDRGYSPKDVAVLVSTAKEVEHYKYELLKAMRKKRVVQLSDACDMLGDHIVLDSVRRFSGLERSIVFGIHPRTADPAILPNVLICLASRAKQHLYIFPWGGH |  | binding result [1]: binds
4 | full-length human SLFN11 (Schlafen 11), wild type (enzyme, UniProt Q7Z7L1 1-901, looked up, Schlafen 11 (SLFN11), human, full length; domains: Slfn core 1-353, linker 354-576, helicase 577-901; residues 7-899 built in the model; The construct has an HRV 3C cleavage site after the N-terminal double FLAG tag; The protein was eluted with Flag peptide and no cleavage is described; It is in a monomer-dimer equilibrium in solution; also called SLFN11^wt; source: SEC for cryo-EM samples) MEANQCPLVVEPSYPDLVINVGEVTLGEENRKKLQKIQRDQEKERVMRAACALLNSGGGVIRMAKKVEHPVEMGLDLEQSLRELIQSSDLQAFFETKQQGRCFYIFVKSWSSGPFPEDRSVKPRLCSLSSSLYRRSETSVRSMDSREAFCFLKTKRKPKILEEGPFHKIHKGVYQELPNSDPADPNSDPADLIFQKDYLEYGEILPFPESQLVEFKQFSTKHFQEYVKRTIPEYVPAFANTGGGYLFIGVDDKSREVLGCAKENVDPDSLRRKIEQAIYKLPCVHFCQPQRPITFTLKIVNVLKRGELYGYACMIRVNPFCCAVFSEAPNSWIVEDKYVCSLTTEKWVGMMTDTDPDLLQLSEDFECQLSLSSGPPLSRPVYSKKGLEHKKELQQLLFSVPPGYLRYTPESLWRDLISEHRGLEELINKQMQPFFRGILIFSRSWAVDLNLQEKPGVICDALLIAQNSTPILYTILREQDAEGQDYCTRTAFTLKQKLVNMGGYTGKVCVRAKVLCLSPESSAEALEAAVSPMDYPASYSLAGTQHMEALLQSLVIVLLGFRSLLSDQLGCEVLNLLTAQQYEIFSRSLRKNRELFVHGLPGSGKTIMAMKIMEKIRNVFHCEAHRILYVCENQPLRNFISDRNICRAETRKTFLRENFEHIQHIVIDEAQNFRTEDGDWYGKAKSITRRAKGGPGILWIFLDYFQTSHLDCSGLPPLSDQYPREELTRIVRNADPIAKYLQKEMQVIRSNPSFNIPTGCLEVFPEAEWSQGVQGTLRIKKYLTVEQIMTCVADTCRRFFDRGYSPKDVAVLVSTAKEVEHYKYELLKAMRKKRVVQLSDACDMLGDHIVLDSVRRFSGLERSIVFGIHPRTADPAILPNVLICLASRAKQHLYIFPWGGH |  | stoichiometry N [2]: 2
